Columns and labels:
B-Raf (V600E) (h) = B-Raf (V600E) (h) (Homo sapiens, UniProt P15056, V600E); assay: Kinase inhibition assay B-Raf (V600E) (h), radiometric 33P-ATP filter assay; assay type: biochemical; conditions: read-out: IC50(nM) BRAF^V600E
Protocol: (§1) b-Raf (V599E) (h) was incubated with 25 mM Tris/HCl pH 7.5, 0.2 mM EGTA, 10 mM DTT, 0.01% Triton X-100, 0.5 mM, sodium orthovandate, 0.5 mM […], 1% glycerol, 34 nM unactive MEK1, 69 nM unactive MAPK2, 0.5 mg/mL myelin basic protein, and 10 mM Magnesium acetate and […] (specific activity and concentration as required). The reaction was initiated by the addition of the Mg/ATP mix. After incubation for 40 minutes at room temperature, the reaction was stopped by the addition of phosphoric acid to a concentration of 0.5%. 10 μL of the reaction was then spotted onto a P30 filtermat and washed four times for 4 minutes in 0.425% phosphoric acid and once in methanol prior to drying and scintillation counting. Similar protocols were used for other kinase assays employing the kinase of interest to generate the data in Table 1.

BRAF = BRAF (Homo sapiens, UniProt P15056); assay: Kinase inhibition assay BRAF (similar protocol); assay type: biochemical
Protocol: as §1

CRAF = CRAF (Homo sapiens, UniProt P04049); assay: Kinase inhibition assay CRAF (similar protocol); assay type: biochemical
Protocol: as §1

ARAF = molecular target: T1, ARAF (Homo sapiens, UniProt P10398); assay: Kinase inhibition assay ARAF (similar protocol); assay type: biochemical
T1 sequence (P10398 1-606): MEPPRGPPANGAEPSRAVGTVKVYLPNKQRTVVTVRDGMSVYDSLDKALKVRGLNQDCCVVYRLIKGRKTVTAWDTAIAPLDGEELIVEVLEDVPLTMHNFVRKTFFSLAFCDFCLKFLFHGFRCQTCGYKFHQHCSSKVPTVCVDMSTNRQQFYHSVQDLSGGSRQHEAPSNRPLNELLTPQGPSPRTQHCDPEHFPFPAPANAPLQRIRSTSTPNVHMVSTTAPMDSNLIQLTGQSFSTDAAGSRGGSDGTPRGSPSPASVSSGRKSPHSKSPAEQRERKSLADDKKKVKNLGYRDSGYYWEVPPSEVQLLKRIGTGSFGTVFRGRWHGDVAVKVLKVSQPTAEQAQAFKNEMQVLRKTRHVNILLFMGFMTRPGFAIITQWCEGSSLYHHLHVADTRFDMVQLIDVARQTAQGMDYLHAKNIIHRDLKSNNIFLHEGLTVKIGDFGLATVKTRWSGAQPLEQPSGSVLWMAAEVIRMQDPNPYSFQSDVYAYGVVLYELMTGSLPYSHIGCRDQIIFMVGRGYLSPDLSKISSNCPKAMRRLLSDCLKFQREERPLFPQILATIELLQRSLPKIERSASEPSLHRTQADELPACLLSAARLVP
Protocol: as §1

BRAF^V600E = molecular target: T2, BRAF^V600E (Homo sapiens, UniProt P15056, V600E); assay: Cellular degradation assay, Western blot of BRAF^V600E; assay type: cell-based; conditions: for degradation of BRAF^V600E by immunoblot (FIGS. 4 and 5): A375 human melanoma cells, 24 hrs; for DCmax(%) BRAF^V600E / DC50: Table 1, cells treated 24 hours, Western blot; for DC50: read-out: DC50(nM) BRAF^V600E
T2 construct: A375 or SK-Mel-28 cells were obtained from ATCC; host or cells: A375 or SK-Mel-28
Protocol: Cell culture and compound treatment: A375 or SK-Mel-28 cells were obtained from ATCC and cultured in Dulbecco's Modified Eagle Media (DMEM) supplemented with 10% FBS, penicillin and streptomycin, at 37° C., 5% CO2. Cells grown in 6-well plates were treated for 24 hours with test compounds (solubilized in DMSO) or 0.1% DMSO vehicle control. Cells were harvested by first washing with 1× phosphate-buffered saline (PBS), then scrapping into 1 ml of PBS supplemented with 1 mM phenylmethylsulfonylflouride (PMSF). Cell pellets were obtained after a centrifugation at 300-350×g for 2 min, and immediately snap frozen in liquid nitrogen.
Cell lysis and Western blot analysis: Cell pellets were thawed and lysed by pipetting in lysis buffer (50 mM HEPES (pH 7.4), 150 mM NaCl, 5 mM EDTA, 0.5% NP-40, 5 mM NaF, 10% glycerol), with Roche protease inhibitor cocktail (5056489001) and phosphatase inhibitor cocktail PhosStop (4906845001) added fresh before use. The whole cell lysate was clarified by centrifugation at 15,000-20,000×g for 20 min and supernatant was collected. Total protein concentration in the clarified lysate was determination by Bradford assay (Bio-Rad), and 30-50 ug of protein was separated through SDS-PAGE, transferred onto nitrocellulose membrane and subject to standard immunoblotting protocol. Band intensities were quantified by Bio-Rad Image Lab software. Antibodies to B-Raf (sc-5284), A-Raf (sc-166771), phosphor MEK1/2, pS218/222 (sc-7995), phosphor ERK1/2 (sc-7383) were purchased from Santa Cruz; C-Raf (9422), MEK1/2 (9122), ERK1/2 (9102) from Cell Signaling; p27 (610242) from BD Biosciences. Antibody to the loading control α-tubulin was obtained from Sigma-Aldrich (6199).

CRAF, sequence (P04049 whole entry): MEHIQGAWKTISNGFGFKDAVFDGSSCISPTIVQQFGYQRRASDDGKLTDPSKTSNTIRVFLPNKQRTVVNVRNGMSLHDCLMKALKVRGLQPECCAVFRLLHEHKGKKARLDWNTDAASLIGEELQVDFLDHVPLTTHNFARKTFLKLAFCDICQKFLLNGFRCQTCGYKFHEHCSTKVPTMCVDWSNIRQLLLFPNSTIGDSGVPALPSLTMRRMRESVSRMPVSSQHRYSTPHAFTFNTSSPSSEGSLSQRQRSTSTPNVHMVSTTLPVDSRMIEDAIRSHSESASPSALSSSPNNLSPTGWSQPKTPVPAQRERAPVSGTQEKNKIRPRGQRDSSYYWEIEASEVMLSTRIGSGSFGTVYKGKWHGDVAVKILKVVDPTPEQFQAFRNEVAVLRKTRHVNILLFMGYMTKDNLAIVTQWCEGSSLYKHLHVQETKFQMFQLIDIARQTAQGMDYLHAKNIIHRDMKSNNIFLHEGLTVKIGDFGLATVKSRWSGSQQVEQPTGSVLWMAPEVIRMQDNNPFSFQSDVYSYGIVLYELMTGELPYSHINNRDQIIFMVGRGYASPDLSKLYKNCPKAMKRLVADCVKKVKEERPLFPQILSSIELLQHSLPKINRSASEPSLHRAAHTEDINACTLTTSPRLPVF
B-Raf (V600E) (h), sequence (P15056 whole entry V600E): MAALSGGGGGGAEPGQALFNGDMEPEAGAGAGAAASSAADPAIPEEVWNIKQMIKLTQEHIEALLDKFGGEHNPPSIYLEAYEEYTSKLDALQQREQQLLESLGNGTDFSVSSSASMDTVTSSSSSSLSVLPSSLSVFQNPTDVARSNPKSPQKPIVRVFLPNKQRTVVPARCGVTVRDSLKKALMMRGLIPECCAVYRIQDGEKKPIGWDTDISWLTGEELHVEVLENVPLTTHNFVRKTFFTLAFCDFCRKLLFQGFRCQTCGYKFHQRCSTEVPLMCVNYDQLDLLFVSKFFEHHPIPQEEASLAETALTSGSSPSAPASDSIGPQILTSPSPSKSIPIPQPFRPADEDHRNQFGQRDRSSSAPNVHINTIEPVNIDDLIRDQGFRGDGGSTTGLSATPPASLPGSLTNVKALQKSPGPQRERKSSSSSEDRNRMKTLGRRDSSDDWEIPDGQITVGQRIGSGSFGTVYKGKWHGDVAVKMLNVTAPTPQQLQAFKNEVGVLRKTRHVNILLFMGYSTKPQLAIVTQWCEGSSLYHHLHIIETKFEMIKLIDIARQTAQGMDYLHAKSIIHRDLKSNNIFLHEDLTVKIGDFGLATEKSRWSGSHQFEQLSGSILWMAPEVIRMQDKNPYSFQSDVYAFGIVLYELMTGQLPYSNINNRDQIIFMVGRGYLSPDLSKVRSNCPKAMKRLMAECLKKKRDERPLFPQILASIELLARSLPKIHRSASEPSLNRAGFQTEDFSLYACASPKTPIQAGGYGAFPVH
T2 sequence (P15056 whole entry V600E): as above
BRAF, sequence (P15056 whole entry): as the sequence (P15056 whole entry V600E) above, with E600V counted along it

| IC50 (B-Raf (V600E) (h)) [nM] | IC50 (BRAF) [nM] | IC50 (CRAF) [nM] | IC50 (ARAF) [nM] | degradation of BRAF^V600E by immunoblot (FIGS. 4 and 5) (BRAF^V600E) | DCmax(%) BRAF^V600E (BRAF^V600E) [%] | DC50 (BRAF^V600E) [nM] | degradation of BRAF^V600E by immunoblot (FIG. 3A) (BRAF^V600E; dabrafenib 20 nM, PROTAC inhibitors 50 nM) | Compound |
| --- | --- | --- | --- | --- | --- | --- | --- | --- |
| 25 | 66 | 223 | 3620 | Degradation of BRAF^V600E was observed | 73 | 50 | – | CCCS(=O)(=O)Nc1ccc(F)c(-n2cc(-c3cncnc3)c3nc(N(C)C4CCN(C(=O)CCOCCOCCOCCOCCOCCNc5cccc6c5C(=O)N(C5CCC(=O)NC5=O)C6=O)CC4)ccc32)c1F (centres unmarked) [Entry 18, N-(3-(5-((1-(1-((2-(2,6-dioxopiperidin-3-yl)-1,3-dioxoisoindolin-4-yl)amino)-3,6,9,12,15-pentaoxaoctadecan-18-oyl)piperidin-4-yl)(methyl)amino)-3-(pyrimidin-5-yl)-1H-pyrrolo[3,2-b]pyridin-1-yl)-2,4-difluorophenyl)propane-1-sulfonamide] |
| 83 | – | 542 | 6550 | Degradation of BRAF^V600E was observed | 60 | 100 | – | CCCS(=O)(=O)Nc1ccc(F)c(-n2cc(-c3cncnc3)c3nc(N(C)C4CCN(C(=O)CCOCCOCCOCCOCCOCCOCCNc5cccc6c5C(=O)N(C5CCC(=O)NC5=O)C6=O)CC4)ccc32)c1F (centres unmarked) [Entry 19, N-(3-(5-((1-(1-((2-(2,6-dioxopiperidin-3-yl)-1,3-dioxoisoindolin-4-yl)amino)-3,6,9,12,15,18-hexaoxaheneicosan-21-oyl)piperidin-4-yl)(methyl)amino)-3-(pyrimidin-5-yl)-1H-pyrrolo[3,2-b]pyridin-1-yl)-2,4-difluorophenyl)propane-1-sulfonamide] |
| 85 | – | 592 | 4910 | Degradation of BRAF^V600E was observed | 40 | 75 | – | CCCS(=O)(=O)Nc1ccc(F)c(-n2cc(-c3cncnc3)c3nc(N(C)C4CCN(C(=O)CCOCCOCCOCCOCCOCCOCCOCCOCCNc5cccc6c5C(=O)N(C5CCC(=O)NC5=O)C6=O)CC4)ccc32)c1F (centres unmarked) [Entry 20, N-(3-(5-((1-(1-((2-(2,6-dioxopiperidin-3-yl)-1,3-dioxoisoindolin-4-yl)amino)-3,6,9,12,15,18,21,24-octaoxaheptacosan-27-oyl)piperidin-4-yl)(methyl)amino)-3-(pyrimidin-5-yl)-1H-pyrrolo[3,2-b]pyridin-1-yl)-2,4-difluorophenyl)propane-1-sulfonamide] |
| 82 | – | 468 | 3340 | Degradation of BRAF^V600E was observed | 29 | 20 | – | CCCS(=O)(=O)Nc1ccc(F)c(-n2cc(-c3cncnc3)c3nc(N(C)C4CCN(C(=O)CCC(=O)NCCCOCCOCCOCCCNc5cccc6c5C(=O)N(C5CCC(=O)NC5=O)C6=O)CC4)ccc32)c1F (centres unmarked) [Entry 21, 4-(4-((1-(2,6-Difluoro-3-(propylsulfonamido)phenyl)-3-(pyrimidin-5-yl)-1H-pyrrolo[3,2-b]pyridin-5-yl)(methyl)amino)piperidin-1-yl)-N-(3-(2-(2-(3-((2-(2,6-dioxopiperidin-3-yl)-1,3-dioxoisoindolin-4-yl)amino)propoxy)ethoxy)ethoxy)propyl)-4-oxobutanamide] |
| – | – | – | – | – | – | – | no degradation | CC(C)(C)c1nc(-c2cccc(NS(=O)(=O)c3c(F)cccc3F)c2F)c(-c2ccnc(N)n2)s1 [dabrafenib, reference compound] |

Source: US12186401B2, “Amide-based proteolysis modulators of B-rapidly accelerated fibrosarcoma (BRAF) and associated uses” (Ontario Institute for Cancer Research (OICR), priority 2019, dated 2025)
